# Measured values as given in PMC4772116 (Scientific Reports, 2016).
# Key:
# human α3β2 nAChR = human α3β2 nAChR (Homo sapiens, UniProt P17787+P32297); assay: cell-based; format: cell-based
# Ac-AChBP = Ac-AChBP (Aplysia californica, UniProt Q8WSF8); assay: biochemical; format: binding
# Ls-AChBP = Ls-AChBP (Lymnaea stagnalis, UniProt P58154); assay: biochemical; format: binding
# Chain of Ls-AChBP (P58154 20-229 limits assumed): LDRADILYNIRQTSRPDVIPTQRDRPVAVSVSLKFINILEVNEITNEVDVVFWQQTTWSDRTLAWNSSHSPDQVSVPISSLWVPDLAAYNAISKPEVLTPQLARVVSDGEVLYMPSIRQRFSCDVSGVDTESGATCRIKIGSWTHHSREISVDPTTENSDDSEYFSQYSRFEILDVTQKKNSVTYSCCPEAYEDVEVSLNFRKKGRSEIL
# Chain of Ac-AChBP (Q8WSF8 20-236 limits assumed): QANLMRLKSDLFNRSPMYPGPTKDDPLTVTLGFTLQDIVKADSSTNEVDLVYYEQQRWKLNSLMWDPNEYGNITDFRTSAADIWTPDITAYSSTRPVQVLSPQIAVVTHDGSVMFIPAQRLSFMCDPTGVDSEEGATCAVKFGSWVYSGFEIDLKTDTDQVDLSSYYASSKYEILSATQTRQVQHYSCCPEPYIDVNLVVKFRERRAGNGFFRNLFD
# Chain of human α3β2 nAChR (P32297 32-505 limits assumed): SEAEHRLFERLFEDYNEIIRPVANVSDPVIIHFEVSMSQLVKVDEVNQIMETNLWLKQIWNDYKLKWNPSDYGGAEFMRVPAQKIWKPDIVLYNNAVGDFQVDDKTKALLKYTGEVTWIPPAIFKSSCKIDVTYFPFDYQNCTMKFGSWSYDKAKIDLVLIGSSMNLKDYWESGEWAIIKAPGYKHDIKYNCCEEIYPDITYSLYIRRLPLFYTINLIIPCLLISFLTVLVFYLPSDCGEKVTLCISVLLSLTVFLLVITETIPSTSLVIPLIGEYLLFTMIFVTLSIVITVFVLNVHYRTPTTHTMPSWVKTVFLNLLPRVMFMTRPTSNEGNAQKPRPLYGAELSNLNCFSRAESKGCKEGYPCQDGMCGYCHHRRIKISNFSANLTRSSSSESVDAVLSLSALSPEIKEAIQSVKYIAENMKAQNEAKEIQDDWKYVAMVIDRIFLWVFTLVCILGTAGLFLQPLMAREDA
# Chain of human α3β2 nAChR (P17787 26-502 limits assumed): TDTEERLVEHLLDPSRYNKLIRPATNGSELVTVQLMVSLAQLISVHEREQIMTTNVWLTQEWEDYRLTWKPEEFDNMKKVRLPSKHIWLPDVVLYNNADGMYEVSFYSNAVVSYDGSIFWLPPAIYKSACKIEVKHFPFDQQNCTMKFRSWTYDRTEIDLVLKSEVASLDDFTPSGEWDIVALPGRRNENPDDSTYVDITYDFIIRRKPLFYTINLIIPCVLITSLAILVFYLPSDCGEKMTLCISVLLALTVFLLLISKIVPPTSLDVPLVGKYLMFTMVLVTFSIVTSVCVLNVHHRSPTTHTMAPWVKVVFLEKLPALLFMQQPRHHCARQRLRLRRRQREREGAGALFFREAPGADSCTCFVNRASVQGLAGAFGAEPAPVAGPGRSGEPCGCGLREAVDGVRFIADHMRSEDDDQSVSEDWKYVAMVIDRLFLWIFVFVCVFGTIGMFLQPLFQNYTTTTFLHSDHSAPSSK
smiles,measurement,setting,value
"CC[C@H](C)[C@@H]1NC(=O)[C@H](Cc2cnc[nH]2)NC(=O)[C@H](CCC(N)=O)NC(=O)[C@H](CC(N)=O)NC(=O)[C@H](CC(N)=O)NC(=O)CNC(=O)[C@H](C)NC(=O)[C@@H]2CSSC[C@H](NC(=O)CN)C(=O)N[C@@H](CSSC[C@@H](C(N)=O)NC1=O)C(=O)N[C@@H](CO)C(=O)N[C@@H](Cc1cnc[nH]1)C(=O)N1CCC[C@H]1C(=O)N[C@@H](C)C(=O)N2 [GIC, α-conotoxin GIC]",IC50,human α3β2 nAChR,1.13 nM
same,IC50,Ac-AChBP,29 ± 2 nM
same,Ki,Ls-AChBP,220 ± 10 nM
